{
  "source": "ChEMBL document CHEMBL5465560",
  "about": "“Selectivity Literature for EUbOPEN Chemogenomic Library” (2024)",
  "key": {"[1]": {"target": "Interleukin-1 receptor-associated kinase 1 (Homo sapiens) (UniProt P51617)", "sequence (P51617 whole entry, looked up)": "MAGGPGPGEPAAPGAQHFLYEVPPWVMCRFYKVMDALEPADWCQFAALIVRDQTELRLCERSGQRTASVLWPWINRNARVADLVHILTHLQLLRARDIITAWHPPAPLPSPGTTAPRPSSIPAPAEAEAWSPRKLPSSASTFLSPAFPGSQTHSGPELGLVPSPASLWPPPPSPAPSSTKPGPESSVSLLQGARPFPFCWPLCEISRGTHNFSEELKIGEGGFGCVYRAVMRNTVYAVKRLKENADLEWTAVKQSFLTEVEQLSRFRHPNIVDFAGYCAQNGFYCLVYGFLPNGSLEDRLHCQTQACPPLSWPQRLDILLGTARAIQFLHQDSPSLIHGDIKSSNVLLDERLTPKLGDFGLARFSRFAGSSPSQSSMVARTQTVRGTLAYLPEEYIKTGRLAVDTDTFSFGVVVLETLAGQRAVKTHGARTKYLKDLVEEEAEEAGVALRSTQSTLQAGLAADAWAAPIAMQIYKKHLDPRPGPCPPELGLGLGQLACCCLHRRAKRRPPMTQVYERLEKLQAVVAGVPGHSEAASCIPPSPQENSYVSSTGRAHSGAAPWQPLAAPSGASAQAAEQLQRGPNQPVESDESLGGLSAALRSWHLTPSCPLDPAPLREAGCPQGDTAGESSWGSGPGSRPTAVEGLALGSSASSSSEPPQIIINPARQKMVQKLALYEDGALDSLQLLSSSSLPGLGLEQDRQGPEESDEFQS", "test": "Selectivity interaction (KinomeScan (DiscoverX)) EUB0000045b IRAK1"}, "[2]": {"target": "T1, Serine/threonine-protein kinase Nek11 (Homo sapiens) (UniProt Q8NG66)", "T1 sequence (whole entry)": "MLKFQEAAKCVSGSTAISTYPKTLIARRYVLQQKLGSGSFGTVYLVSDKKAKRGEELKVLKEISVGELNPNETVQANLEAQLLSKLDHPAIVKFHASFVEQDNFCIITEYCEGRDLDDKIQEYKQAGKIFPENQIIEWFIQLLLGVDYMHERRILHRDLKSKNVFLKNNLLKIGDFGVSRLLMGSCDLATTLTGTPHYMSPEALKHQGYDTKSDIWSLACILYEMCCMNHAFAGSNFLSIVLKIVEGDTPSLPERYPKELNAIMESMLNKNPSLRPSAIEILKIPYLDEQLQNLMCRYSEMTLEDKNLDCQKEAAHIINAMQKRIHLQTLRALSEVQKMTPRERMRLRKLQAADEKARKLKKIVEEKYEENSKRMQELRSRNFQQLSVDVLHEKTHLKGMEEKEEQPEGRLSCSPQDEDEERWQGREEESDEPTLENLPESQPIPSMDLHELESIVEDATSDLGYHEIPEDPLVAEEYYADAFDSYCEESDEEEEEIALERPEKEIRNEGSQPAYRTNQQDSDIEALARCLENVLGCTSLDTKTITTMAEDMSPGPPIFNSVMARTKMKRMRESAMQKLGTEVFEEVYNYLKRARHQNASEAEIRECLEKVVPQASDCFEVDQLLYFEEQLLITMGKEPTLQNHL", "details": "at 10 µM"}, "[3]": {"target": "T2, Serine/threonine-protein kinase haspin (Homo sapiens) (UniProt Q8TF76)", "T2 sequence (whole entry)": "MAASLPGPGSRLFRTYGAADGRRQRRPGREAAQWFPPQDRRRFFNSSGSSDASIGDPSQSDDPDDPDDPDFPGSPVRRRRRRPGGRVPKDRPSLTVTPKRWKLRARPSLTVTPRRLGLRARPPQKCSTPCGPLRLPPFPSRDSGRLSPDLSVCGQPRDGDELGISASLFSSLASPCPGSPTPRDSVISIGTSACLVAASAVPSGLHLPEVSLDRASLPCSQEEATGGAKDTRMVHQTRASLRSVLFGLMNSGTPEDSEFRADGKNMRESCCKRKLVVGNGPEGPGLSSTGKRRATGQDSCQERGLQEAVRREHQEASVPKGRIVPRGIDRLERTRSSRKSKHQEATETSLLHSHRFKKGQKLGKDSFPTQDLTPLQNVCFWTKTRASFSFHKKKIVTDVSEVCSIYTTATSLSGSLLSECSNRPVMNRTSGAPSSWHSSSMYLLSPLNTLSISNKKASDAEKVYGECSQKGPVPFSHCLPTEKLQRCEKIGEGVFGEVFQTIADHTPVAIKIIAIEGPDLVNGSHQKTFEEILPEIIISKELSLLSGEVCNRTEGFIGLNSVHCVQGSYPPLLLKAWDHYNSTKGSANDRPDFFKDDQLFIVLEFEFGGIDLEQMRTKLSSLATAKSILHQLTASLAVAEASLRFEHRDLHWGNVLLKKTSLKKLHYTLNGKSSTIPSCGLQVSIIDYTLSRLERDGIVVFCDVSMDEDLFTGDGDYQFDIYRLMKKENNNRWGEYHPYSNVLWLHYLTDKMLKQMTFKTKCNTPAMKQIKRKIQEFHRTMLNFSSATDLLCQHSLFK", "test": "Selectivity interaction (ProQinase) EUB0000171b GSG2"}, "[4]": {"target": "T3, 5-hydroxytryptamine receptor 2C (Homo sapiens) (UniProt P28335)", "T3 sequence (whole entry)": "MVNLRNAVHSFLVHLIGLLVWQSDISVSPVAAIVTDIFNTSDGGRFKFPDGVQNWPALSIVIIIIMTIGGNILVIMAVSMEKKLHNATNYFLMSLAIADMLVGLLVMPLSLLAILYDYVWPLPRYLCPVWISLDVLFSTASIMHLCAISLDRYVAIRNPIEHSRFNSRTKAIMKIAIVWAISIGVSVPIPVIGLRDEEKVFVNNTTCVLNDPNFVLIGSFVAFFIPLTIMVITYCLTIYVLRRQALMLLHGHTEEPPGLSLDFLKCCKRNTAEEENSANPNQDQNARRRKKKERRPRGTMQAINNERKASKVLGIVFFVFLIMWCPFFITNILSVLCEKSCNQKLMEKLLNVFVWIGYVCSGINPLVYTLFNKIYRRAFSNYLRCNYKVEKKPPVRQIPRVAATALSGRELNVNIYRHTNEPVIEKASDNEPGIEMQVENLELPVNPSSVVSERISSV", "test": "Selectivity interaction (Panel of kinases, GPCRs, ion channels and transporters (enzymatic assay)) EUB0000223bCl HTR2C"}, "[5]": {"target": "T4, Dual specificity mitogen-activated protein kinase kinase 3 (Homo sapiens) (UniProt P46734)", "T4 sequence (whole entry)": "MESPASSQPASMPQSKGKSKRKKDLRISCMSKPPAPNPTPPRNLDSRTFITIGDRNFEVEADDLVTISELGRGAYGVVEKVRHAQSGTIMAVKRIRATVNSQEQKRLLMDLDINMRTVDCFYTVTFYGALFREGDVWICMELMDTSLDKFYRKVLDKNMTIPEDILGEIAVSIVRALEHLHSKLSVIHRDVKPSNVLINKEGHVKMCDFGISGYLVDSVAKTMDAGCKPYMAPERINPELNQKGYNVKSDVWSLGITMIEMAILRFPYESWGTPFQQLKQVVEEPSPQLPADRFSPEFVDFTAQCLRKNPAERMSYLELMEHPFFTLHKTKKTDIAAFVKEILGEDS", "details": "at 10 µM"}, "[6]": {"target": "T5, Megakaryocyte-associated tyrosine-protein kinase (Homo sapiens) (UniProt P42679)", "T5 sequence (whole entry)": "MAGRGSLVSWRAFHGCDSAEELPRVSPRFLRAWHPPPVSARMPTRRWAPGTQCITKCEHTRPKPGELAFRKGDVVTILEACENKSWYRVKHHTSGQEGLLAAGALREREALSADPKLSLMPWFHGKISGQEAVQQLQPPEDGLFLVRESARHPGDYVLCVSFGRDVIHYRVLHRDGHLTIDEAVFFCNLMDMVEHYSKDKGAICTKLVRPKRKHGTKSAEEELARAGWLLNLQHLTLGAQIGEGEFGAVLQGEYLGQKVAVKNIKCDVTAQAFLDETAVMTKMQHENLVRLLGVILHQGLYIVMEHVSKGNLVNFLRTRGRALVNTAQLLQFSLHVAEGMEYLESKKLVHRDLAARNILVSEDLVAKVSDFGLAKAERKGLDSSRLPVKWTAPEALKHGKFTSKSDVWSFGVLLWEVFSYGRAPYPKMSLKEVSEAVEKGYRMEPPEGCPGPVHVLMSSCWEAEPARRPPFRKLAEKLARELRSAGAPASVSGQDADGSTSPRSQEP", "test": "Selectivity interaction (Ambit KINOMEscan and KiNATiv profiling in Jurkat cells) EUB0000090b MATK", "type": "cell-based", "details": "at 1 µM"}},
  "data": [
    {"compound": "C=CC(=O)Nc1cc(-n2c(=O)ccc3cnc4ccc(-c5ccc(NS(C)(=O)=O)cc5)cc4c32)ccc1C", "values": [
      {"measurement": "% of control", "setting": "[1]; at 1 µM", "result": 72, "unit": "%"},
      {"measurement": "% of control", "setting": "[1]; at 10 µM", "result": 60, "unit": "%"}
    ]},
    {"compound": "Cc1cc([C@@H](C)Nc2ccccc2C(=O)O)c2nc(N3CCOCC3)cc(=O)n2c1", "note": "[AZD-6482]", "values": [
      {"measurement": "% of control", "setting": "[2]", "result": 100, "unit": "%"}
    ]},
    {"compound": "C=CC(=O)Nc1cccc(C(=O)Nc2ccc(Nc3cc(-c4[nH]c(SC)nc4C)ccn3)cc2)c1", "values": [
      {"measurement": "% of control", "setting": "[3]; at 1 µM", "result": 84, "unit": "%"},
      {"measurement": "% of control", "setting": "[3]; at 5 µM", "result": 56, "unit": "%"}
    ]},
    {"compound": "COc1cc(C(=O)N2CC[C@@H](O)[C@@H](N)C2)cc2nc(-c3cc4ccccc4n3CC3CC3)n(C)c12", "values": [
      {"measurement": "pXC50", "setting": "[4]", "result": "< 4.4", "unit": "M"}
    ]},
    {"compound": "CCN(CC)CCCCNc1ncc2cc(-c3cc(OC)cc(OC)c3)c(NC(=O)NC(C)(C)C)nc2n1", "values": [
      {"measurement": "% of control", "setting": "[5]", "result": 100, "unit": "%"}
    ]},
    {"compound": "CN(C)C/C=C/C(=O)Nc1ccc(C(=O)N2CCCC(Nc3ncc(Cl)c(-c4c[nH]c5ccccc45)n3)C2)cc1", "note": "(stereo not drawn)", "values": [
      {"measurement": "% of control", "setting": "[6]", "result": 94, "unit": "%"}
    ]}
  ]
}
